Reference: patent publication US11566024B2 (CHANGZHOU QIANHONG BIOPHARMA CO., LTD, priority 2018, dated 2023)
One block for each compound: values may come before it.

Legend:
[1] = Preliminary stability tests (high temperature, high humidity, illumination); format: physicochemical; conditions: high humidity, and illumination, versus free base and other salt forms
Description: However, unlike phosphates and the like, the above increase in solubility is not accompanied by a significant increase in hygroscopicity. […] The above and other advantages will be favorable for overcoming various challenges faced by the development of pharmaceutical products containing selective CDK 9 kinase inhibitors of Formula I.

Hygroscopicity (DVS) = format: physicochemical; conditions: for hygroscopicity (in words): DVS experiments on the Active Pharmaceutical Ingredients; for hygroscopicity class (in words) / hygroscopic weight gain: at 80% humidity; for hygroscopic weight gain: tartrate
physchem = conditions: for solubility: 25 °C, thermodynamic from solid
Description: Perform scale-up experiments on the above six salts to determine solubilities of various salts in different pH buffers and deionized water, and compare with the free base.

[2] = Conversion experiments between the crystal forms; format: physicochemical; conditions: conversion between Crystal Form A and Form B
[3] = Equilibrium solubility of crystal forms under simulated in vivo conditions; format: physicochemical; conditions: simulated in vivo conditions (pH=2.0, 4.6, 6.8)

Compound: CNc1nc(C)c(-c2nc(Nc3cccc(S(N)(=O)=O)c3)ncc2F)s1.O=C(O)C(O)C(O)C(=O)O [Form A, 3-(5-fluoro-4-(4-methyl-2-(methylamino)thiazol-5-yl)pyrimidin-2-ylamino)-benzenesulfonamide tartrate]
hygroscopicity class (in words) (Hygroscopicity (DVS)): non-hygroscopic
hygroscopic weight gain (Hygroscopicity (DVS)): 0.22%
crystal form stability (in words) [2]: more stable crystal form
equilibrium solubility (in words) [3]: greater than that of Form B

Compound: CNc1nc(C)c(-c2nc(Nc3cccc(S(N)(=O)=O)c3)ncc2F)s1.O=C(O)C(O)C(O)C(=O)O [Form B, 3-(5-fluoro-4-(4-methyl-2-(methylamino)thiazol-5-yl)pyrimidin-2-ylamino)-benzenesulfonamide tartrate]
hygroscopicity class (in words) (Hygroscopicity (DVS)): non-hygroscopic
hygroscopic weight gain (Hygroscopicity (DVS)): 0.11%

Compound: CNc1nc(C)c(-c2nc(Nc3cccc(S(N)(=O)=O)c3)ncc2F)s1 [LS007, 3-(5-fluoro-4-(4-methyl-2-(methylamino)thiazol-5-yl)pyrimidin-2-ylamino)-benzenesulfonamide]
hygroscopicity (in words) (Hygroscopicity (DVS)): very low hygroscopicity

Results, then the compound that gave them:

stability (in words) [1]: better stability
hygroscopicity (in words) (Hygroscopicity (DVS)): lowest hygroscopicity
solubility (physchem; pH 2, aqueous buffer): 4300 µg/mL
solubility (physchem; pH 4.5, aqueous buffer): 7.5 µg/mL
solubility (physchem; pH 6.8, aqueous buffer): 3.7 µg/mL
solubility (physchem; water): 418 µg/mL
solubility compared to the raw materials (in words) (physchem; pH 2.0 buffer and deionized water, HPLC): significantly increased
Compound: CNc1nc(C)c(-c2nc(Nc3cccc(S(N)(=O)=O)c3)ncc2F)s1.O=C(O)C(O)C(O)C(=O)O [Tartrate, 3-(5-fluoro-4-(4-methyl-2-(methylamino)thiazol-5-yl)pyrimidin-2-ylamino)-benzenesulfonamide tartrate]

hygroscopicity (in words) (Hygroscopicity (DVS)): highest hygroscopicity
water absorbed (Hygroscopicity (DVS); DVS, 60% RH): 11.71%
Compound: CNc1nc(C)c(-c2nc(Nc3cccc(S(N)(=O)=O)c3)ncc2F)s1.O=P(O)(O)O [Phosphate]
